Assay results: US11708368B2, “Crystal form of ethyl (S)-3-(8-bromo-1-methyl-6-(pyridin-2-yl)-4H-benzo[f]imidazo[1,2-a][1,4]diazepin-4-yl)propanoate hydrochloride” (JIANGSU NHWALUOKANG PHARMACEUTICAL RESEARCH AND DEVELOPMENT …, priority 2018, dated 2023)

How the values were obtained:
[1] = Long-term stability test (25° C., RH60%), change in degradation product CNS-7054; assay type: physicochemical; settings: for Change in CNS-7054, Long-term experiment (25° C., RH60%): 6 months, after packaging, degradation product CNS-7054; for CNS-7054 increase, long-term experiment (25° C., RH60%): in 3 months, sulfonate of the benzodiazepine derivative
Protocol: (§1) The compound of Formula I prepared in the above examples were selected, and placed under the conditions of 40° C., RH75% and 25° C., RH60% for an accelerated stability test and a long-term stability test after packaging. The changes in the degradation product (CNS-7054) in these compounds in 6 months were observed, and the results are shown in Table 13 below.
(§2) In addition, a lyophilized preparation made of sulfonates according to the prior art were partially degraded into carboxylic acid (CNS-7054) and released alcohol in both the accelerated and long-term experiments.

[2] = Accelerated stability test (40° C., RH75%), change in degradation product CNS-7054; assay type: physicochemical; settings: for Change in CNS-7054, Accelerated experiment (40° C., RH75%): 6 months, after packaging, degradation product CNS-7054; for CNS-7054 increase, accelerated experiment (40° C., RH75%): in 1 month, sulfonate of the benzodiazepine derivative
Protocol: as §1, §2

KM mice [3] = experiment: LD50 in KM mice by sequential method (death); assay type: in vivo; settings: for TI (therapeutic index): KM mice, calculated through LD50 and ED50 values; for LD50 (95% confidence interval): male KM mice, tail vein injection in 5 seconds, death, sequential method
Protocol: (§3) Sequential method was used to determine the hypnotic ED50 and LD50 in KM mice for the hydrochloride of the benzodiazepine derivative. Healthy and qualified male KM mice were selected, n=10−20. The drug was injected through the tail vein at a constant rate in 5 seconds. After preliminary pre-test, the approximate dosage that may cause hypnosis (or death) of the animals was found as an intermediate dosage in the formal experiment. A group interval of 0.8 was used, and 2-3 dosage groups were set up and down respectively. The formal experiment started with the administration from the intermediate dosage. When the animal was narcotized (or died), the dosage was reduced by one dose. If the animal was not narcotized (or died), the dosage was increased by one until 3-4 repetitions occurred. The ED50 value and LD50 value were measured with the disappearance of righting reflex or death as indicators. The therapeutic index (TI index=[…]) was calculated through LD50 and ED50 values.

KM mice [4] = experiment: Hypnotic ED50 in KM mice by sequential method (disappearance of righting reflex); assay type: in vivo; settings: male KM mice, tail vein injection in 5 seconds
Protocol: as §3

patients = settings: Phase II clinical trial of ICU sedation; cited from earlier work
KM mice [5] = experiment: 2*ED50 anesthesia pharmacodynamics experiment in KM mice (induction time, duration, walking time); assay type: in vivo; settings: n=20, dosage 2*ED50, tail vein injection in 5 seconds
Protocol: KM mice, half male and half female, 20 mice in each group. […] The time of loss of the righting reflex in mice (induction time), recovery time (duration) and walking time were recorded.

Structure (SMILES): CCOC(=O)CCC1N=C(c2ccccn2)c2cc(Br)ccc2-n2c(C)cnc21.Cl (stereo not shown) [Ethyl, 1.7% glycine]
- Change in CNS-7054, Long-term experiment (25° C., RH60%) [1]: Not increased
- Change in CNS-7054, Accelerated experiment (40° C., RH75%) [2]: Not increased

Structure (SMILES): COC(=O)CCC1N=C(c2ccccn2)c2cc(Br)ccc2-n2c(C)cnc21.Cl (stereo not shown) [Methyl, None]
- Change in CNS-7054, Accelerated experiment (40° C., RH75%) [2]: Not increased

Structure (SMILES): CCOC(=O)CCC1N=C(c2ccccn2)c2cc(Br)ccc2-n2c(C)cnc21.Cl (stereo not shown) [Ethyl, 4.5% glycine]
- Change in CNS-7054, Long-term experiment (25° C., RH60%) [1]: Not increased
- Change in CNS-7054, Accelerated experiment (40° C., RH75%) [2]: Not increased

Structure (SMILES): COC(=O)CCC1N=C(c2ccccn2)c2cc(Br)ccc2-n2c(C)cnc21.Cl (stereo not shown) [Methyl, 2% glycine]
- Change in CNS-7054, Long-term experiment (25° C., RH60%) [1]: Not increased
- Change in CNS-7054, Accelerated experiment (40° C., RH75%) [2]: Not increased

Structure (SMILES): CCOC(=O)CCC1N=C(c2ccccn2)c2cc(Br)ccc2-n2c(C)cnc21.Cl (stereo not shown) [Ethyl, 5% alanine]
- Change in CNS-7054, Long-term experiment (25° C., RH60%) [1]: Not increased
- Change in CNS-7054, Accelerated experiment (40° C., RH75%) [2]: Increased by 0.01%

Structure (SMILES): CCOC(=O)CCC1N=C(c2ccccn2)c2cc(Br)ccc2-n2c(C)cnc21.Cc1ccc(S(=O)(=O)O)cc1 (stereo not shown)
- CNS-7054 increase, long-term experiment (25° C., RH60%) [1]: Increased by 0.1%
- CNS-7054 increase, accelerated experiment (40° C., RH75%) [2]: Increased by 0.2%

Structure (SMILES): CCOC(=O)CCC1N=C(c2ccccn2)c2cc(Br)ccc2-n2c(C)cnc21.Cl (stereo not shown) [Ethyl, 4% alanine]
- Change in CNS-7054, Long-term experiment (25° C., RH60%) [1]: Not increased
- Change in CNS-7054, Accelerated experiment (40° C., RH75%) [2]: Increased by 0.01%

Structure (SMILES): COC(=O)CCC1N=C(c2ccccn2)c2cc(Br)ccc2-n2c(C)cnc21.O=S(=O)(O)c1ccccc1 (stereo not shown) [positive control 1]
- TI (therapeutic index) (KM mice [3]): 6.6
- LD50 (95% confidence interval) (KM mice [3]): 270.09 mg/kg
- ED50 (95% confidence interval) (KM mice [4]): 40.64 mg/kg

Structure (SMILES): COC(=O)CCC1N=C(c2ccccn2)c2cc(Br)ccc2-n2c(C)cnc21.Cl (stereo not shown) [Methyl, 4% valine]
- Change in CNS-7054, Long-term experiment (25° C., RH60%) [1]: Not increased
- Change in CNS-7054, Accelerated experiment (40° C., RH75%) [2]: Increased by 0.01%

Structure (SMILES): COC(=O)CCC1N=C(c2ccccn2)c2cc(Br)ccc2-n2c(C)cnc21.Cc1ccc(S(=O)(=O)O)cc1 (stereo not shown)
- CNS-7054 increase, long-term experiment (25° C., RH60%) [1]: Increased by 0.1%
- CNS-7054 increase, accelerated experiment (40° C., RH75%) [2]: Increased by 0.1%

Structure (SMILES): CCOC(=O)CCC1N=C(c2ccccn2)c2cc(Br)ccc2-n2c(C)cnc21.Cl (stereo not shown) [Ethyl, None]
- Change in CNS-7054, Long-term experiment (25° C., RH60%) [1]: Not increased
- Change in CNS-7054, Accelerated experiment (40° C., RH75%) [2]: Not increased

Structure (SMILES): CCOC(=O)CCC1N=C(c2ccccn2)c2cc(Br)ccc2-n2c(C)cnc21.Cl (stereo not shown) [Ethyl, 4% valine]
- Change in CNS-7054, Accelerated experiment (40° C., RH75%) [2]: Increased by 0.01%

Structure (SMILES): COC(=O)CC[C@@H]1N=C(c2ccccn2)c2cc(Br)ccc2-n2c(C)cnc21 [Remimazolam]
- hemodynamics of the patients after receiving the drug (patients): unstable
- patients with plasma concentration higher than the normal range (patients): 10%

Structure (SMILES): CCOC(=O)CCC1N=C(c2ccccn2)c2cc(Br)ccc2-n2c(C)cnc21.O=S(=O)(O)c1ccccc1 (stereo not shown)
- CNS-7054 increase, long-term experiment (25° C., RH60%) [1]: Increased by 0.03%
- CNS-7054 increase, accelerated experiment (40° C., RH75%) [2]: Increased by 0.05%

Structure (SMILES): COC(=O)CC[C@@H]1N=C(c2ccccn2)c2cc(Br)ccc2-n2c(C)cnc21.O=S(=O)(O)c1ccccc1
- CNS-7054 increase, long-term experiment (25° C., RH60%) [1]: Increased by 0.04%
- CNS-7054 increase, accelerated experiment (40° C., RH75%) [2]: Increased by 0.07%

Structure (SMILES): CCOC(=O)CC[C@@H]1N=C(c2ccccn2)c2cc(Br)ccc2-n2c(C)cnc21.Cl [R is ethyl, hydrochloride, ethyl (S)-3-(8-bromo-1-methyl-6-(pyridin-2-yl)-4H-benzo[f]imidazo[1,2-a][1,4]diazepin-4-yl)propanoate hydrochloride]
- incidence of the animal anesthesia time of more than 10 minutes (KM mice [5]): 20%
- incidence of the animal walking time of more than 1 min (KM mice [5]): 15%

Structure (SMILES): COC(=O)CCC1N=C(c2ccccn2)c2cc(Br)ccc2-n2c(C)cnc21.O=S(=O)(O)c1ccccc1 (stereo not shown) [Positive control 1]
- Number of animals with duration time longer than 10 min (KM mice [5]): 9/20
- Number of animals with walking time longer than 1 min (KM mice [5]): 17/20
- Walking time (KM mice [5]): 514.95 ± 525.16 s
- duration time (recovery time) (KM mice [5]): 692.3 ± 399.15 s
- induction time (time of loss of the righting reflex) (KM mice [5]): 17.6 ± 1.93 s

Structure (SMILES): COC(=O)CCC1N=C(c2ccccn2)c2cc(Br)ccc2-n2c(C)cnc21.Cl (stereo not shown) [Methyl, 5% alanine]
- Change in CNS-7054, Long-term experiment (25° C., RH60%) [1]: Not increased
- Change in CNS-7054, Accelerated experiment (40° C., RH75%) [2]: Increased by 0.01%

Structure (SMILES): CCOC(=O)CCC1N=C(c2ccccn2)c2cc(Br)ccc2-n2c(C)cnc21.O=S(=O)(O)c1ccccc1 (stereo not shown) [positive control 2]
- TI (therapeutic index) (KM mice [3]): 16.8
- LD50 (95% confidence interval) (KM mice [3]): 263.14 mg/kg
- ED50 (95% confidence interval) (KM mice [4]): 15.62 mg/kg

Structure (SMILES): CCOC(=O)CCC1N=C(c2ccccn2)c2cc(Br)ccc2-n2c(C)cnc21.O=S(=O)(O)c1ccccc1 (stereo not shown) [Positive control 2]
- Number of animals with duration time longer than 10 min (KM mice [5]): 7/20
- Number of animals with walking time longer than 1 min (KM mice [5]): 10/20
- Walking time (KM mice [5]): 192.9 ± 268.98 s
- duration time (recovery time) (KM mice [5]): 443.75 ± 247.86 s
- induction time (time of loss of the righting reflex) (KM mice [5]): 17.1 ± 2.00 s

Structure (SMILES): CCOC(=O)CCC1N=C(c2ccccn2)c2cc(Br)ccc2-n2c(C)cnc21.Cl (stereo not shown) [Ethyl, 2.8% glycine]
- Change in CNS-7054, Long-term experiment (25° C., RH60%) [1]: Not increased
- Change in CNS-7054, Accelerated experiment (40° C., RH75%) [2]: Not increased

Structure (SMILES): COC(=O)CCC1N=C(c2ccccn2)c2cc(Br)ccc2-n2c(C)cnc21.Cl (stereo not shown) [Methyl, 3% glycine]
- Change in CNS-7054, Long-term experiment (25° C., RH60%) [1]: Not increased
- Change in CNS-7054, Accelerated experiment (40° C., RH75%) [2]: Not increased

Structure (SMILES): COC(=O)CCC1N=C(c2ccccn2)c2cc(Br)ccc2-n2c(C)cnc21.Cl (stereo not shown) [Methyl, 4% glycine]
- Change in CNS-7054, Long-term experiment (25° C., RH60%) [1]: Not increased
- Change in CNS-7054, Accelerated experiment (40° C., RH75%) [2]: Increased by
